{"source": "patent US20250368552A1", "about": "“INHIBITION OF BIOFILMS GROWTH IN PROCESS WATERS WITH MICROBIAL INTERACTIVE COMPOSITIONS” (ECOLAB USA INC., priority 2024, published 2025)", "key": {"planktonic bacteria": {"test_system": "planktonic bacteria", "assay": "Average planktonic bacterial concentration in liquid culture (plate count / OD600 turbidity)", "format": "cell-based", "conditions": "control 8.7", "source_text": "(§1) Additional testing was run to show various evaluated concentrations of chemistries including No Treatment (Control), QAT Biocide, Chemical B, and Chemical A+E for assessing biofilm reduction based on average planktonic bacterial concentrations as shown in Table 5.\nThe following methodology for the bacterial concentration in liquid culture were used:\nPlate count: plate the treated bacterial mixture after serial dilutions with required mediums like R2A, Petrifilms etc.\n(§2) OD600 turbidity: bacterial concentration is correlated with the medium turbidity, The planktonic concentration can be calculated using a turbidity to bacterial count concentration model. If OD600 is <0.1, it is considered bacterial counts <10^3 cfu/ml."}, "[1]": {"test_system": "Bact P2 (Cooling Water Bacteria Population 2), planktonic growth", "assay": "Planktonic inhibition (minimum inhibition concentration in liquid culture)", "format": "cell-based", "conditions": "minimum inhibitory concentration", "source_text": "(§3) Another plate was run according to the same procedures outlined in Examples 1-3. The experiment tested Chemicals including Alkyl Poly Glucoside, QAT Biocide, Chemical B, Chemical A+D for Planktonic inhibition as well as Biofilm Inhibition as reflected in Table 4.\n(§4) The results in Table 4 show minimum biofilm inhibition concentrations (ppm) when treating different bacterial populations with each of the chemicals alone.\n(§5) Minimum Inhibition Concentration (MIC): at this concentration, bacterial population stopped growth under the above incubation conditions\nas §2"}, "[2]": {"test_system": "Bact P1 (Cooling Water Bacteria Population 1), planktonic growth", "assay": "Planktonic inhibition (minimum inhibition concentration in liquid culture)", "format": "cell-based", "source_text": "as §3, §4, §5, §2"}, "[3]": {"test_system": "Cooling Water Bacteria Population 2", "assay": "Biofilm inhibition test, 96 well microtiter plate, crystal violet stain (similar to ASTM E2799-12 MBEC assay)", "format": "cell-based, Pseudomonas species in cooling water systems", "source_text": "(§6) The bacterial species used for the biofilm inhibition testing included: 1) cooling water bacterial population 1=total aerobic bacterial population that was obtained from cooling water samples in cooling water systems and grown on standard nutrient agar for aerobic bacteria, and 2) cooling water bacterial population 2=Pseudomonas species in cooling water systems. Pseudomonas species were collected from cooling water samples from selective media. The collected Pseudomonas population from cooling water systems were stored at −80° C. and re-inoculated into 100 mL fresh test medium (described below), incubated at a rotary shaker at 35° C., […] for 18-24 hours before used as a starter culture.\nThe concentration range for the testing of these microorganisms for the waters was 10^4-10^8 CFU/ml.\nThe following Examples utilized a 96-well microtiter plate and aerobic incubation.\nThe Biofilm inhibition testing utilized a test medium with a final concentration of 16% test medium in the water. […]\n(§7) To quantify the biofilm and effect of the chemicals, the minimal biofilm eradication concentration (MBEC) using a method similar to the ASTM method for Testing disinfectant efficacy against Pseudomonas aeruginosa Biofilm using MBEC Assay (E2799-12), Standard Test Method for Testing Disinfectant Efficacy against Pseudomonas aeruginosa Biofilm using MBEC Assay. […]"}, "biofilm": {"test_system": "biofilm", "assay": "Biofilm quantity on surface by crystal violet staining, biofilm reduction vs control", "format": "cell-based", "conditions": "for Avg Biofilm Reduction: (Treatment OD595 - Control OD595)*100/Control OD595, negative = less biofilm", "source_text": "as §1\nThe following methodology for the biofilm concentration on surface were used:\nBiofilm quantity: biofilm quantity grew on surface can be determined by crystal violate staining, followed by 3 times of washing and then eluting.\nBiofilm Reduction from chemical treatment is calculated by the following: (average Treatment OD595-average Control OD595)*100/average Control OD595 where the CV absorbance range used was 580-595 nm. If OD595 was <0.1, it was considered as non-biofilm formation. CV absorbance range 580-595 nm was used in different tests."}, "[4]": {"test_system": "Cooling Water Bacteria Population 1", "assay": "Biofilm inhibition test, 96 well microtiter plate, crystal violet stain (similar to ASTM E2799-12 MBEC assay)", "format": "cell-based", "source_text": "as §6, with “culture. […]” for “culture.”\nas §7\nThe control where there was no chemical treatment present indicated a steady presence of biofilm build up between absorbance 0.5 to 0.6. The biofilm concentrations are correlated to the absorbance at wavelength 580-595 nm (depicted in figures as Obs 580 nm). […]"}, "[5]": {"test_system": "indigenous microbial populations of cooling water sources", "assay": "MIC of hypochlorite (as free chlorine) for biofilm formation in commercial cooling water sources", "format": "cell-based", "conditions": "for MIC hypochlorite: hypochlorite alone, as free chlorine", "description": "Additional testing was completed to show the benefit of reducing a biocidal dose with the method of preventing biofilms described herein. Various commercial cooling water sources were evaluated for the MIC of hypochlorite (Minimum Inhibition Concentration as free chlorine for biofilm formation) as the biocide dosed with the Chemistry A+Chemistry E. The test conditions and results are shown in Table 6.\nUnder certain conditions the biocide dosing requirement was reduced by over 90%."}, "[6]": {"conditions": "concentration giving biofilm reduction"}, "[7]": {"conditions": "minimum biofilm inhibition concentration"}}}
{"smiles": "CCCCCCCCCC[N+](C)(C)CCCCCCCCCC.[Cl-]", "note": "[QATS Biocide, Didecyl Dimethyl Ammonium Chloride]", "values": [{"measurement": "Avg Planktonic Bacterial Conc", "setting": "planktonic bacteria; 1.6 ppm", "result": 8.672, "unit": "Log cfu/ml"}, {"measurement": "Avg Planktonic Bacterial Conc", "setting": "planktonic bacteria; 3.1 ppm", "result": 8.688, "unit": "Log cfu/ml"}, {"measurement": "Avg Planktonic Bacterial Conc", "setting": "planktonic bacteria; 6.2 ppm", "result": 8.609, "unit": "Log cfu/ml"}, {"measurement": "Avg Planktonic Bacterial Conc", "setting": "planktonic bacteria; 12.5 ppm", "result": 8.492, "unit": "Log cfu/ml"}, {"measurement": "Avg Planktonic Bacterial Conc", "setting": "planktonic bacteria; 25.0 ppm", "result": 8.590, "unit": "Log cfu/ml"}, {"measurement": "Avg Planktonic Bacterial Conc", "setting": "planktonic bacteria; 50.0 ppm", "result": "<3.000", "unit": "Log cfu/ml"}, {"measurement": "Avg Planktonic Bacterial Conc", "setting": "planktonic bacteria; 100.0 ppm", "result": "<3.000", "unit": "Log cfu/ml"}, {"measurement": "Planktonic Inhibition Bact P2", "setting": "[1]", "result": 1.6, "unit": "ppm"}, {"measurement": "Concentration that effectively killed planktonic bacteria", "setting": "[2]; Table 4, Bact P1 and Bact P2", "result": "≤ 3", "unit": "ppm"}, {"measurement": "Planktonic Inhibition Bact P1", "setting": "[2]; minimum inhibitory concentration, Bact P1", "result": 3, "unit": "ppm"}, {"measurement": "Biofilm reduction Bact P2", "setting": "[3]; [6]", "result": 0.8, "unit": "ppm"}, {"measurement": "Total Biofilm Inhibition Bact P2", "setting": "[3]; [7]", "result": 1.6, "unit": "ppm"}, {"measurement": "Avg Biofilm Reduction", "setting": "biofilm; 1.6 ppm", "result": 49.9, "unit": "%"}, {"measurement": "Avg Biofilm Reduction", "setting": "biofilm; 3.1 ppm", "result": 54.0, "unit": "%"}, {"measurement": "Avg Biofilm Reduction", "setting": "biofilm; 6.2 ppm", "result": 108.4, "unit": "%"}, {"measurement": "Avg Biofilm Reduction", "setting": "biofilm; 12.5 ppm", "result": "−3.5", "unit": "%"}, {"measurement": "Avg Biofilm Reduction", "setting": "biofilm; 25.0 ppm", "result": 34.7, "unit": "%"}, {"measurement": "Avg Biofilm Reduction", "setting": "biofilm; 50.0 ppm", "result": "−89.1", "unit": "%"}, {"measurement": "Avg Biofilm Reduction", "setting": "biofilm; 100.0 ppm", "result": "−12.1", "unit": "%"}, {"measurement": "Concentration showing both planktonic and biofilm control", "setting": "biofilm; Table 5", "result": "greater than 50 ppm"}, {"measurement": "Biofilm Reduction Bact P1", "setting": "[4]; [6]", "result": 0.8, "unit": "ppm"}, {"measurement": "Total Biofilm Inhibition Bact P1", "setting": "[4]; [7]", "result": 6, "unit": "ppm"}]}
{"smiles": "OCl", "note": "[hypochlorite]", "values": [{"measurement": "MIC hypochlorite", "setting": "[5]; Cooling Water Source 1", "result": 25, "unit": "ppm"}, {"measurement": "MIC hypochlorite (ppm) With 6 ppm Chemistry A + Chemistry E", "setting": "[5]; Cooling Water Source 1", "result": 3.1, "unit": "ppm"}, {"measurement": "MIC hypochlorite", "setting": "[5]; Cooling Water Source 2", "result": 25, "unit": "ppm"}, {"measurement": "MIC hypochlorite (ppm) With 6 ppm Chemistry A + Chemistry E", "setting": "[5]; Cooling Water Source 2", "result": 6.3, "unit": "ppm"}, {"measurement": "MIC hypochlorite", "setting": "[5]; Cooling Water Source 3", "result": 12.5, "unit": "ppm"}, {"measurement": "MIC hypochlorite (ppm) With 6 ppm Chemistry A + Chemistry E", "setting": "[5]; Cooling Water Source 3", "result": 0.8, "unit": "ppm"}, {"measurement": "MIC hypochlorite", "setting": "[5]; Cooling Water Source 4", "result": 25, "unit": "ppm"}, {"measurement": "MIC hypochlorite (ppm) With 6 ppm Chemistry A + Chemistry E", "setting": "[5]; Cooling Water Source 4", "result": 12.5, "unit": "ppm"}]}
